Earlier results on 17 compounds are cited in patent US9745567B2, “Compositions and methods for treating multiple sclerosis” (REVALESIO CORPORATION, priority 2008, dated 2017).

Counter-ions that a name gives are not always drawn. Like-named read-outs stand apart in the source and are kept apart here.

Some targets named below: MMP-8 (Homo sapiens, UniProt P22894); MMP-9 (Homo sapiens, UniProt P14780); MMP-13 (Homo sapiens, UniProt P45452); TACE (Homo sapiens, UniProt P78536).
The next series deals with T1, MMP-1 (Homo sapiens, UniProt P03956).
T1 sequence (P03956 100-469): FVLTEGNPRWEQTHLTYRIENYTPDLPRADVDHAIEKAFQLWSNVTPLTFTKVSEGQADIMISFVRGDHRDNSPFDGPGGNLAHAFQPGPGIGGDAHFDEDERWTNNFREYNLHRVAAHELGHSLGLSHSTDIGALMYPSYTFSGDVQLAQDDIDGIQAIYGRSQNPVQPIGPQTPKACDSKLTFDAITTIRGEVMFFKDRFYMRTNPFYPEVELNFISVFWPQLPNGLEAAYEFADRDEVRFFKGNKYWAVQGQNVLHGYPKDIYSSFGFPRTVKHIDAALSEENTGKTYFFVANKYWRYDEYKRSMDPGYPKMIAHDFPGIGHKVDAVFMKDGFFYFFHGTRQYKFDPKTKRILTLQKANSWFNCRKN

The next series concerns the target T2, MMP-2 (Homo sapiens, UniProt P08253).
T2 sequence (P08253 110-660): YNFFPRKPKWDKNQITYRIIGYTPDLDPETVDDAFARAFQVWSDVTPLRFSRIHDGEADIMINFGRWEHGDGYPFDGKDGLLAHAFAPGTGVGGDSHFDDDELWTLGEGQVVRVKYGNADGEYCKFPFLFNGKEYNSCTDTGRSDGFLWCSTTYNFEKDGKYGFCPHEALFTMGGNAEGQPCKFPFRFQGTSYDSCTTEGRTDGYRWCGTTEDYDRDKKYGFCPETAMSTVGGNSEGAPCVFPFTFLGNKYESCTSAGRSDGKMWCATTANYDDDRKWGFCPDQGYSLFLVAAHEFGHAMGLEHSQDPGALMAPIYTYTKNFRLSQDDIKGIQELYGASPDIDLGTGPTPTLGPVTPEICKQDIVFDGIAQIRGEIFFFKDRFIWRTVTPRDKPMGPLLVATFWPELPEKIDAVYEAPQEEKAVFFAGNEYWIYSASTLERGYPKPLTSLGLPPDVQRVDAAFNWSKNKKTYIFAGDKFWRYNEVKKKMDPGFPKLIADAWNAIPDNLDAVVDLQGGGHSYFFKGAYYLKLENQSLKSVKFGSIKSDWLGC

The target of series [1] is T3, MMP-3 (Homo sapiens, UniProt P08254).
Target sequence in this assay (P08254 100-477, species assumed): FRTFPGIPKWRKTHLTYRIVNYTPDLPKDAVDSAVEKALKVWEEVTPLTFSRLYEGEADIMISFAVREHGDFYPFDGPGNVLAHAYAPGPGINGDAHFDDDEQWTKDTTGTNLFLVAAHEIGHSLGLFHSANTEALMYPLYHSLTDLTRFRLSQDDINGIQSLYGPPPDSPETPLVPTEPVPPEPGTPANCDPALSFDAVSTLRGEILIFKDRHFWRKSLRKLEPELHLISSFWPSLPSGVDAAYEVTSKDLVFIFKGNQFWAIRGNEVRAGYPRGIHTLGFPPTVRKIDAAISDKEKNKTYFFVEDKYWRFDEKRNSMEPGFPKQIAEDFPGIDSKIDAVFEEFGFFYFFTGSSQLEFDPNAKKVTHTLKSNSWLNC
For series [2], the target named is T3, MMP-3. To be noted: for Ki values, human MMP-3 catalytic domain: competitive inhibitor.
Target sequence in this assay (P08254 100-477): as the sequence (P08254 100-477, species assumed) above
The target of series [3] is T4, rabbit MMP-3 catalytic domains (Oryctolagus cuniculus, UniProt P28863).
T4 construct: rabbit MMP-3 catalytic domains
To be noted: competitive inhibitor.

Series [4] addresses murine macrophage metalloelastase (MME/MMP-12) (Mus musculus, UniProt P34960).
The subject of another series is multiple sclerosis. To be noted: clinical study, 943 patients with primary progressive MS.
The next series addresses T5, MMP-7 (Homo sapiens, UniProt P09237).
T5 sequence (P09237 95-267): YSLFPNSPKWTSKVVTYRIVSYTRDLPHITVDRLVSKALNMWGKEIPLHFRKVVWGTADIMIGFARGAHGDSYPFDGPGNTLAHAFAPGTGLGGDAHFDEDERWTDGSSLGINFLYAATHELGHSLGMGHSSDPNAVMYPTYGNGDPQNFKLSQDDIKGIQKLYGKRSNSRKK

For series [5], the target named is pseudolysin from P. aeruginosa (Pseudomonas aeruginosa, UniProt P14756).
pseudolysin from P. aeruginosa, sequence (P14756 198-498): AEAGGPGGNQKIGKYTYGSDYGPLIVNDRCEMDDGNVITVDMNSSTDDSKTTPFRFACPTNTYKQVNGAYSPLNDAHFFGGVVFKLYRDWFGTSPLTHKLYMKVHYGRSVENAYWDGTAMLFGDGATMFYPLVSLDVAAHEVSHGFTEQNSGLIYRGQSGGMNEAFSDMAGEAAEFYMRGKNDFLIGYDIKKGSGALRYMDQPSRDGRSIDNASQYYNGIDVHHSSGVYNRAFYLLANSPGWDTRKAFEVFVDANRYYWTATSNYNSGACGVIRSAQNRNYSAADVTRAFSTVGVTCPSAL

MMP-9, sequence (P14780 94-707, species assumed): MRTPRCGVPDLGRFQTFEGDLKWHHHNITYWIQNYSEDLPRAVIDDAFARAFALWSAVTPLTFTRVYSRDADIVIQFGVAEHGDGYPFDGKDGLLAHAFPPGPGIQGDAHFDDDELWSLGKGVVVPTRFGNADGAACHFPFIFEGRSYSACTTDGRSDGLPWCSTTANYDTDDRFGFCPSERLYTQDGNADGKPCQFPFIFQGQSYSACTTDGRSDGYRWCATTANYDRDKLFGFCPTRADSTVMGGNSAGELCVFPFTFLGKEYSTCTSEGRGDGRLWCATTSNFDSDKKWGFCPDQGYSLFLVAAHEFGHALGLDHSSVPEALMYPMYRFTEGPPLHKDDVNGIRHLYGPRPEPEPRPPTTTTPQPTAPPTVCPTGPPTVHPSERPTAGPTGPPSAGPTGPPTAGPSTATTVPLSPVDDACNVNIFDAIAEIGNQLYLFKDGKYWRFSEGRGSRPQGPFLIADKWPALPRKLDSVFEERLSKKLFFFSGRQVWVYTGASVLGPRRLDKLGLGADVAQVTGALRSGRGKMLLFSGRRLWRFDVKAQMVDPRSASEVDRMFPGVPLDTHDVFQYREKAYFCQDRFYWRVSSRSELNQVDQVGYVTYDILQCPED
MMP-8, sequence (P22894 101-467, species assumed): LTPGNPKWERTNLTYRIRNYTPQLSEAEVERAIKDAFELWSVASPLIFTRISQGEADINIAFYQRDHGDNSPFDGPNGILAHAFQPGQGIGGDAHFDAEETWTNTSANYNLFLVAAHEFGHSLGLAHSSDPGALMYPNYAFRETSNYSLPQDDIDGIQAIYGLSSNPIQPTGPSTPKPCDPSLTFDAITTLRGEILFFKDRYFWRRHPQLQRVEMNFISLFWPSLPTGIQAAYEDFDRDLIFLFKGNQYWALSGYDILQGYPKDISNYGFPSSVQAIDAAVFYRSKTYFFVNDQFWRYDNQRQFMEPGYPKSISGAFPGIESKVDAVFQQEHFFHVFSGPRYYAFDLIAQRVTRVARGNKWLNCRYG
T4 sequence (P28863 101-273 limits assumed): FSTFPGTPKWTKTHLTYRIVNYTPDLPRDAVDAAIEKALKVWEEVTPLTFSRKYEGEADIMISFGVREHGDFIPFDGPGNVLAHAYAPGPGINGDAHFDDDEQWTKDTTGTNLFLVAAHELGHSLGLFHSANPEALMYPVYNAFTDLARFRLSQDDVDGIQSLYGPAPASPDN
TACE, sequence (P78536 215-824): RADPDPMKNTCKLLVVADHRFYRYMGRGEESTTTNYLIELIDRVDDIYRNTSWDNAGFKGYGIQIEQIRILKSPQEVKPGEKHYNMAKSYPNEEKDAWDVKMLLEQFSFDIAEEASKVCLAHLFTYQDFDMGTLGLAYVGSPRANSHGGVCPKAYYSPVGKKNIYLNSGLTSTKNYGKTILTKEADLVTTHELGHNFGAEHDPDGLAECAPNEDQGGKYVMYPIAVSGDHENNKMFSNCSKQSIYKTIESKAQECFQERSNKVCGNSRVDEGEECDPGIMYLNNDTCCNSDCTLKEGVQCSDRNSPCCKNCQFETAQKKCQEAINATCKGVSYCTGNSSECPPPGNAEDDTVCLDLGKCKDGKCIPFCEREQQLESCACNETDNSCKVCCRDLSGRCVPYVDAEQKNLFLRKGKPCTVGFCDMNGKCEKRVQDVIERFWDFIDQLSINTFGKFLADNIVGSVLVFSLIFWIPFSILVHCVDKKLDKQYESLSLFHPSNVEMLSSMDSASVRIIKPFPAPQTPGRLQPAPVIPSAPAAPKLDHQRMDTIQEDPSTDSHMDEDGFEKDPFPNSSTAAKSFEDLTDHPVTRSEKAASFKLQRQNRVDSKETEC
murine macrophage metalloelastase (MME/MMP-12), sequence (P34960 110-473): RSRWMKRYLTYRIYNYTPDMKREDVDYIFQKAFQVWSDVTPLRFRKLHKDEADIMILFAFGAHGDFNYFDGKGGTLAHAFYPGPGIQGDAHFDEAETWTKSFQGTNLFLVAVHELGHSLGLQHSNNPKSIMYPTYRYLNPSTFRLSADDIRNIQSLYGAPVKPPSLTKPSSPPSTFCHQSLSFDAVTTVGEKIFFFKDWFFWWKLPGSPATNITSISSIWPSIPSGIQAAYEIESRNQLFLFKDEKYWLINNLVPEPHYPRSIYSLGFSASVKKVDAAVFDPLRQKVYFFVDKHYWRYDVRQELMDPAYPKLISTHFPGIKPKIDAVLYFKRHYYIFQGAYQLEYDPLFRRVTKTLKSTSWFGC

The term Ki denotes a dissociation constant, usually derived from enzyme kinetics or from competition with a known ligand. With `CC(C)C[C@H](CC(=O)O)C(=O)N[C@@H](Cc1c[nH]c2ccccc12)C(=O)N[C@@H](C)c1ccccc1` [GM 1489], the Ki is 0.2 nM on MMP-1; 500 nM at MMP-2; 20000 nM on MMP-3 [1]; 100 nM at MMP-8; 100 nM at MMP-9.
As for `CCCCCCCC/C=C\CCCCCCCC(=O)NO` [MMP-2 Inhibitor I (OA-Hy)], the Ki at MMP-2 is 1700 nM.
`O=S(=O)(CCCC(S)CS)c1ccc(Oc2ccccc2)cc1` (centres unmarked) [compound 2, 5-(4-phenoxyphenylsulfonyl)pentane-1,2-dithiol]: at MMP-2, the “inhibition of MMP-2” value was “bind selectively and inhibit potently”. Besides, at MMP-9, the “inhibition of MMP-9” value was “bind selectively and inhibit potently”.
One may read the IC50 as the concentration that inhibits the measured activity by half. For the compound `O=C(NCCCCN1CCOCC1)c1cc2ccccc2o1` [CL-82198], the “inhibition of MMP-1” value on MMP-1 is “Does not inhibit”. Besides, the “inhibition of MMP-9” value at MMP-9 was “Does not inhibit”. Also, at MMP-13, the IC50 is 10000 nM. For the same compound, at TACE, the “inhibition of TACE” value is “Does not inhibit”.
On to `CC(NC(=O)C(Cc1ccccc1)NC(=O)CCC(=O)NO)C(N)=O` (centres unmarked) [MMP-2/MMP-9 Inhibitor IV, HONH—COCH2CH2CO-FA-NH2], for which the inhibition constant Ki on MMP-2 was 13.9 nM; at MMP-9, 600 nM.
In the case of `O=C(O)CCC(=NO)c1ccc2oc3ccccc3c2c1` [MMP-3 Inhibitor V, 4-Dibenzofuran-2′-yl-4-hydroximino-butyric Acid], the “Ki values, human MMP-3 catalytic domain” value on MMP-3 [2] is “the low μM range”. For the same compound, the “Ki values, rabbit MMP-3 catalytic domain” value in series [3] was “the low μM range”.
For the compound `O=C(O)CCC(=NO)c1ccc(-c2ccccc2)cc1` [MMP-3 Inhibitor VI, 4-(4′-Biphenyl)-4-hydroxyimino-butyric Acid], the “Ki values, human MMP-3 catalytic domain” value on MMP-3 [2] is given as “the low μM range”. In series [3], the “Ki values, rabbit MMP-3 catalytic domain” value was “the low μM range”.
For the compound `N=C(NCCCCCCNC(=N)NC(=N)Nc1ccc(Cl)cc1)NC(=N)Nc1ccc(Cl)cc1` [Chlorhexidine, Dihydrochloride], on MMP-2, the “inhibition of MMP-2” value is “Acts as a Zn2+-chelating inhibitor of MMP-2 and MMP-9”. Besides, at MMP-9, the “inhibition of MMP-9” value is “Acts as a Zn2+-chelating inhibitor of MMP-2 and MMP-9”.
On to `COc1ccc(S(=O)(=O)N(Cc2ccccc2)C(CC(C)C)C(=O)NO)cc1` (centres unmarked) [MMP-3 Inhibitor VIII], for which the Ki at MMP-3 [2] is 23 nM. Besides, the IC50 in [4] is 13 nM.
For `O=S(=O)(CCC(S)CS)c1ccc(Oc2ccccc2)cc1` (centres unmarked) [compound 1, 4-(4-phenoxyphenylsulfonyl)butane-1,2-dithiol], at MMP-2, the “inhibition of MMP-2” value was “bind selectively and inhibit potently”. Besides, the “inhibition of MMP-9” value at MMP-9 was “bind selectively and inhibit potently”.
Take “H-Cys1-Thr-Thr-His-Trp-Gly-Phe-Thr-Leu-Cys10-OH (cyclic: 1 → 10) [MMP-2/MMP-9 Inhibitor III]”: the IC50 with MMP-2 is 10000 nM.
As to glatiramer acetate, the “progression of disability and disease” value in the series on multiple sclerosis was “failed to halt the progression of disability and the disease”.
`CNC(=O)C(CCc1ccccc1)NC(=O)C(CC(=O)NO)CC(C)C` (centres unmarked) [MMP Inhibitor III]: the IC50 on MMP-1 was 7.4 nM; at MMP-2 it was 2.3 nM; at MMP-3 [1], 135 nM; at MMP-7 it was 10 to 100 nM; on MMP-13, 1 to 10 nM.
“RCGVPD [MMP-3 Inhibitor I, Ac-Arg-Cys-Gly-Val-Pro-Asp-NH2]”: the IC50 on MMP-3 [1] was 5000 nM.
For “HONH—COCH2CH2CO-Phe-Ala-NH2 [MMP Inhibitor IV]”, the “inhibition of pseudolysin from P. aeruginosa” value in series [5] is reported as “potently inhibits MMPs and”.
On to `COC(=O)[C@H](Cc1ccccc1)NC(=O)Nc1nnc(S)s1` [MMP-2/MMP-3 Inhibitor I], for which the inhibition constant (Ki) at MMP-2 was 17000 nM.
“4-Abz-Gly-Pro-D-Leu-D-Ala-NH—OH [MMP Inhibitor I (FN-439)]”: the concentration for half-maximal inhibition (IC50) is 1000 nM at MMP-1, 150000 nM at MMP-3 [1], 1000 nM at MMP-8 and 30000 nM on MMP-9.
